ChEMBL document CHEMBL3112480, “γ-Alkylidene-γ-lactones and isobutylpyrrol-2(5H)-ones analogues to rubrolides as inhibitors of biofilm formation by gram-positive and gram-negative bacteria” (Bioorg Med Chem Lett, 2014)
In brackets after ≈: the same amount, converted by molar mass.

Key:
Streptococcus mutans [1] = assay: Antibacterial activity against Streptococcus mutans ATCC 25175 assessed as effect on planktonic growth at 2.73 ug/ml after 20 hrs relative to control; assay type: functional
Staphylococcus aureus [2] = assay: Antibacterial activity against Staphylococcus aureus ATCC 25923 assessed as effect on planktonic growth at 21.9 ug/ml after 20 hrs relative to control; assay type: functional
[3] = tested on: Staphylococcus epidermidis; assay: Antibacterial activity against Staphylococcus epidermidis ATCC 35547 assessed as effect on planktonic growth at 5.5 ug/ml after 20 hrs relative to control; assay type: functional
[4] = tested on: Staphylococcus epidermidis; assay: Antibacterial activity against Staphylococcus epidermidis ATCC 35547 assessed as effect on planktonic growth at 10.9 ug/ml after 20 hrs relative to control; assay type: functional
Streptococcus mutans [5] = assay: Antibacterial activity against Streptococcus mutans ATCC 25175 assessed as effect on planktonic growth at 0.68 ug/ml after 20 hrs relative to control; assay type: functional
Pseudomonas aeruginosa [6] = assay: Antibacterial activity against Pseudomonas aeruginosa ATCC 27853 assessed as effect on planktonic growth at 21.9 ug/ml after 20 hrs relative to control; assay type: functional
[7] = tested on: Staphylococcus epidermidis; assay: Antibacterial activity against Staphylococcus epidermidis ATCC 35547 assessed as effect on planktonic growth at 87.5 ug/ml after 20 hrs relative to control; assay type: functional
Streptococcus mutans [8] = assay: Antibacterial activity against Streptococcus mutans ATCC 25175 assessed as effect on planktonic growth at 0.34 ug/ml after 20 hrs relative to control; assay type: functional
Streptococcus mutans [9] = assay: Antibacterial activity against Streptococcus mutans ATCC 25175 assessed as effect on planktonic growth at 87.5 ug/ml after 20 hrs relative to control; assay type: functional
[10] = tested on: Staphylococcus epidermidis; assay: Antibacterial activity against Staphylococcus epidermidis ATCC 35547 assessed as effect on planktonic growth at 21.9 ug/ml after 20 hrs relative to control; assay type: functional
Streptococcus mutans [11] = assay: Antibacterial activity against Streptococcus mutans ATCC 25175 assessed as effect on planktonic growth at 5.5 ug/ml after 20 hrs relative to control; assay type: functional
[12] = tested on: Staphylococcus epidermidis; assay: Antibacterial activity against Staphylococcus epidermidis ATCC 35547 assessed as effect on planktonic growth at 1.37 ug/ml after 20 hrs relative to control; assay type: functional
[13] = tested on: Staphylococcus epidermidis; assay: Antibacterial activity against Staphylococcus epidermidis ATCC 35547 assessed as effect on planktonic growth at 0.34 ug/ml after 20 hrs relative to control; assay type: functional
Pseudomonas aeruginosa [14] = assay: Antibacterial activity against Pseudomonas aeruginosa ATCC 27853 assessed as effect on planktonic growth at 1.37 ug/ml after 20 hrs relative to control; assay type: functional
Staphylococcus aureus [15] = assay: Antibacterial activity against Staphylococcus aureus ATCC 25923 assessed as effect on planktonic growth at 87.5 ug/ml after 20 hrs relative to control; assay type: functional
[16] = tested on: Staphylococcus epidermidis; assay: Antibacterial activity against Staphylococcus epidermidis ATCC 35547 assessed as inhibition of biofilm formation after 20 hrs by crystal-violet staining method; assay type: functional, organism-based; details: for IC50: ATCC 35547, 20 h
Pseudomonas aeruginosa [17] = assay: Antibacterial activity against Pseudomonas aeruginosa ATCC 27853 assessed as effect on planktonic growth at 0.34 ug/ml after 20 hrs relative to control; assay type: functional
[18] = tested on: Staphylococcus epidermidis; assay: Antibacterial activity against Staphylococcus epidermidis ATCC 35547 assessed as effect on planktonic growth at 0.17 ug/ml after 20 hrs relative to control; assay type: functional
Staphylococcus aureus [19] = assay: Antibacterial activity against Staphylococcus aureus ATCC 25923 assessed as effect on planktonic growth at 1.37 ug/ml after 20 hrs relative to control; assay type: functional
Streptococcus mutans [20] = assay: Antibacterial activity against Streptococcus mutans ATCC 25175 assessed as effect on planktonic growth at 10.9 ug/ml after 20 hrs relative to control; assay type: functional
Streptococcus mutans [21] = assay: Antibacterial activity against Streptococcus mutans ATCC 25175 assessed as effect on planktonic growth at 0.17 ug/ml after 20 hrs relative to control; assay type: functional
Streptococcus mutans [22] = assay: Antibacterial activity against Streptococcus mutans ATCC 25175 assessed as effect on planktonic growth at 21.9 ug/ml after 20 hrs relative to control; assay type: functional
Pseudomonas aeruginosa [23] = assay: Antibacterial activity against Pseudomonas aeruginosa ATCC 27853 assessed as effect on planktonic growth at 43.8 ug/ml after 20 hrs relative to control; assay type: functional
Staphylococcus aureus [24] = assay: Antibacterial activity against Staphylococcus aureus ATCC 25923 assessed as effect on planktonic growth at 5.5 ug/ml after 20 hrs relative to control; assay type: functional
Pseudomonas aeruginosa [25] = assay: Antibacterial activity against Pseudomonas aeruginosa ATCC 27853 assessed as effect on planktonic growth at 5.5 ug/ml after 20 hrs relative to control; assay type: functional
Staphylococcus aureus [26] = assay: Antibacterial activity against Staphylococcus aureus ATCC 25923 assessed as effect on planktonic growth at 0.34 ug/ml after 20 hrs relative to control; assay type: functional
Pseudomonas aeruginosa [27] = assay: Antibacterial activity against Pseudomonas aeruginosa ATCC 27853 assessed as effect on planktonic growth at 10.9 ug/ml after 20 hrs relative to control; assay type: functional
Pseudomonas aeruginosa [28] = assay: Antibacterial activity against Pseudomonas aeruginosa ATCC 27853 assessed as effect on planktonic growth at 2.73 ug/ml after 20 hrs relative to control; assay type: functional
Staphylococcus aureus [29] = assay: Antibacterial activity against Staphylococcus aureus ATCC 25923 assessed as effect on planktonic growth at 2.73 ug/ml after 20 hrs relative to control; assay type: functional
Pseudomonas aeruginosa [30] = assay: Antibacterial activity against Pseudomonas aeruginosa ATCC 27853 assessed as inhibition of biofilm formation after 20 hrs by crystal-violet staining method; assay type: functional, organism-based; details: for IC50: ATCC 27853, 20 h
Streptococcus mutans [31] = assay: Antibacterial activity against Streptococcus mutans ATCC 25175 assessed as effect on planktonic growth at 43.8 ug/ml after 20 hrs relative to control; assay type: functional
Pseudomonas aeruginosa [32] = assay: Antibacterial activity against Pseudomonas aeruginosa ATCC 27853 assessed as effect on planktonic growth at 87.5 ug/ml after 20 hrs relative to control; assay type: functional
Streptococcus mutans [33] = assay: Antibacterial activity against Streptococcus mutans ATCC 25175 assessed as effect on planktonic growth at 1.37 ug/ml after 20 hrs relative to control; assay type: functional
Staphylococcus aureus [34] = assay: Antibacterial activity against Staphylococcus aureus ATCC 25923 assessed as effect on planktonic growth at 0.68 ug/ml after 20 hrs relative to control; assay type: functional
[35] = tested on: Staphylococcus epidermidis; assay: Antibacterial activity against Staphylococcus epidermidis ATCC 35547 assessed as effect on planktonic growth at 43.8 ug/ml after 20 hrs relative to control; assay type: functional
Staphylococcus aureus [36] = assay: Antibacterial activity against Staphylococcus aureus ATCC 25923 assessed as effect on planktonic growth at 43.8 ug/ml after 20 hrs relative to control; assay type: functional
Pseudomonas aeruginosa [37] = assay: Antibacterial activity against Pseudomonas aeruginosa ATCC 27853 assessed as effect on planktonic growth at 0.68 ug/ml after 20 hrs relative to control; assay type: functional
Staphylococcus aureus [38] = assay: Antibacterial activity against Staphylococcus aureus ATCC 25923 assessed as effect on planktonic growth at 0.17 ug/ml after 20 hrs relative to control; assay type: functional
[39] = tested on: Staphylococcus epidermidis; assay: Antibacterial activity against Staphylococcus epidermidis ATCC 35547 assessed as effect on planktonic growth at 0.68 ug/ml after 20 hrs relative to control; assay type: functional
Staphylococcus aureus [40] = assay: Antibacterial activity against Staphylococcus aureus ATCC 25923 assessed as effect on planktonic growth at 10.9 ug/ml after 20 hrs relative to control; assay type: functional
[41] = tested on: Staphylococcus epidermidis; assay: Antibacterial activity against Staphylococcus epidermidis ATCC 35547 assessed as effect on planktonic growth at 2.73 ug/ml after 20 hrs relative to control; assay type: functional
Pseudomonas aeruginosa [42] = assay: Antibacterial activity against Pseudomonas aeruginosa ATCC 27853 assessed as effect on planktonic growth at 0.17 ug/ml after 20 hrs relative to control; assay type: functional

Compound: COc1ccc(C)cc1C1=C(Br)C(=O)N(CC(C)C)C1(O)Cc1ccccc1Cl (stereo not given)
- Activity (Streptococcus mutans [1]): 30.7%
- Activity (Staphylococcus aureus [2]): -10.75%
- Activity [3]: 16.5%
- Activity [4]: 22.6%
- Activity (Streptococcus mutans [5]): 13%
- Activity (Pseudomonas aeruginosa [6]): -5.6%
- Activity [7]: 60.7%
- Activity (Streptococcus mutans [8]): 11.1%
- Activity (Streptococcus mutans [9]): 15.3%
- Activity [10]: 34.6%
- Activity (Streptococcus mutans [11]): 35.6%
- Activity [12]: 6.4%
- Activity [13]: 24.8%
- Activity (Pseudomonas aeruginosa [14]): -7.4%
- Activity (Staphylococcus aureus [15]): 16.5%
- inhibition [16]: Dose-dependent effect
- IC50 [16]: > 87.5 µg/mL
- Activity (Pseudomonas aeruginosa [17]): -4.5%
- Activity [18]: 6%
- Activity (Staphylococcus aureus [19]): -3%
- Activity (Streptococcus mutans [20]): 28.7%
- Activity (Streptococcus mutans [21]): 7.3%
- Activity (Streptococcus mutans [22]): 39.8%
- Activity (Pseudomonas aeruginosa [23]): 17.1%
- Activity (Staphylococcus aureus [24]): 5%
- Activity (Pseudomonas aeruginosa [25]): -17.6%
- Activity (Staphylococcus aureus [26]): -0.5%
- Activity (Pseudomonas aeruginosa [27]): -17.5%
- Activity (Pseudomonas aeruginosa [28]): -20.3%
- Activity (Staphylococcus aureus [29]): 0.5%
- inhibition (Pseudomonas aeruginosa [30]): Dose-dependent effect
- IC50 (Pseudomonas aeruginosa [30]): > 87.5 µg/mL
- Activity (Streptococcus mutans [31]): 27.2%
- Activity (Pseudomonas aeruginosa [32]): 32.5%
- Activity (Streptococcus mutans [33]): 12.6%
- Activity (Staphylococcus aureus [34]): -2.5%
- Activity [35]: 48.3%
- Activity (Staphylococcus aureus [36]): 2.25%
- Activity (Pseudomonas aeruginosa [37]): -4.7%
- Activity (Staphylococcus aureus [38]): -1.25%
- Activity [39]: 2.7%
- Activity (Staphylococcus aureus [40]): -6.75%
- Activity [41]: 2.8%
- Activity (Pseudomonas aeruginosa [42]): -2.5%

Compound: COc1ccc(Br)cc1C1=C(Br)C(=O)O/C1=C\c1cccc(Cl)c1
- Activity (Streptococcus mutans [1]): 16.2%
- Activity (Staphylococcus aureus [2]): 43.1%
- Activity [3]: 1.6%
- Activity [4]: 8.6%
- Activity (Streptococcus mutans [5]): 8.4%
- Activity (Pseudomonas aeruginosa [6]): -15%
- Activity [7]: 28.4%
- Activity (Streptococcus mutans [8]): 7.6%
- Activity (Streptococcus mutans [9]): 14.9%
- Activity [10]: 8.8%
- Activity (Streptococcus mutans [11]): 12.4%
- Activity [12]: -2.4%
- Activity [13]: -6.1%
- Activity (Pseudomonas aeruginosa [14]): -13.2%
- Activity (Staphylococcus aureus [15]): 121.6%
- inhibition [16]: Dose-dependent effect
- IC50 [16]: 40 µg/mL (≈ 85 µM)
- Activity (Pseudomonas aeruginosa [17]): 0.3%
- Activity [18]: -1.7%
- Activity (Staphylococcus aureus [19]): 27%
- Activity (Streptococcus mutans [20]): 13.4%
- Activity (Streptococcus mutans [21]): -1%
- Activity (Streptococcus mutans [22]): -5.8%
- Activity (Pseudomonas aeruginosa [23]): -9.5%
- Activity (Staphylococcus aureus [24]): 36.6%
- Activity (Pseudomonas aeruginosa [25]): -19.8%
- Activity (Staphylococcus aureus [26]): 14.5%
- Activity (Pseudomonas aeruginosa [27]): -16.9%
- Activity (Pseudomonas aeruginosa [28]): -21.1%
- Activity (Staphylococcus aureus [29]): 30.1%
- inhibition (Pseudomonas aeruginosa [30]): Dose-dependent effect
- IC50 (Pseudomonas aeruginosa [30]): > 87.5 µg/mL
- Activity (Streptococcus mutans [31]): 0.5%
- Activity (Pseudomonas aeruginosa [32]): -7.3%
- Activity (Streptococcus mutans [33]): 8.9%
- Activity (Staphylococcus aureus [34]): 20%
- Activity [35]: 20.6%
- Activity (Staphylococcus aureus [36]): 75.8%
- Activity (Pseudomonas aeruginosa [37]): -3.1%
- Activity (Staphylococcus aureus [38]): 13.8%
- Activity [39]: -1.6%
- Activity (Staphylococcus aureus [40]): 43.6%
- Activity [41]: 0.1%
- Activity (Pseudomonas aeruginosa [42]): 1.4%

Compound: COc1ccc(C)cc1C1=C(Br)C(=O)O/C1=C\c1ccccc1Cl
- Activity (Streptococcus mutans [1]): -4.1%
- Activity (Staphylococcus aureus [2]): 7.3%
- Activity [3]: 3.7%
- Activity [4]: 13.5%
- Activity (Streptococcus mutans [5]): 5.6%
- Activity (Pseudomonas aeruginosa [6]): -6.8%
- Activity [7]: 70.5%
- Activity (Streptococcus mutans [8]): 6.4%
- Activity (Streptococcus mutans [9]): 18.9%
- Activity [10]: 15.8%
- Activity (Streptococcus mutans [11]): 0.8%
- Activity [12]: 8.5%
- Activity [13]: -0.1%
- Activity (Pseudomonas aeruginosa [14]): -7.5%
- Activity (Staphylococcus aureus [15]): 37%
- inhibition [16]: Dose-dependent effect
- Activity (Pseudomonas aeruginosa [17]): -8.6%
- Activity [18]: -1.6%
- Activity (Staphylococcus aureus [19]): 16.9%
- Activity (Streptococcus mutans [20]): -13.6%
- Activity (Streptococcus mutans [21]): 1.5%
- Activity (Streptococcus mutans [22]): -3.3%
- Activity (Pseudomonas aeruginosa [23]): -2%
- Activity (Staphylococcus aureus [24]): 8.3%
- Activity (Pseudomonas aeruginosa [25]): -5.3%
- Activity (Staphylococcus aureus [26]): 8.3%
- Activity (Pseudomonas aeruginosa [27]): -10.2%
- Activity (Pseudomonas aeruginosa [28]): -4.1%
- Activity (Staphylococcus aureus [29]): 16.9%
- inhibition (Pseudomonas aeruginosa [30]): Dose-dependent effect
- Activity (Streptococcus mutans [31]): 7.4%
- Activity (Pseudomonas aeruginosa [32]): 11.1%
- Activity (Streptococcus mutans [33]): 1.5%
- Activity (Staphylococcus aureus [34]): 10.9%
- Activity [35]: 36.5%
- Activity (Staphylococcus aureus [36]): 25.3%
- Activity (Pseudomonas aeruginosa [37]): -7.8%
- Activity (Staphylococcus aureus [38]): 6%
- Activity [39]: 0.9%
- Activity (Staphylococcus aureus [40]): 10.9%
- Activity [41]: -0.7%
- Activity (Pseudomonas aeruginosa [42]): -3.8%
